The subject of test [1] is delayed hypersensitivity. As to the kind of experiment: Test 1: Test of Reinforcement of Delayed Hypersensitivity (picryl chloride). The class given is in vivo, ICR male mice. The text has this: This system was used for the test of reinforcement of delayed hypersensitivity.
One group of eight ICR male mice, each having a body weight of about 30 g, were used for the test.
Sensitization was effected by coating a 7% solution of picryl chloride in a 4/1 mixture of olive oil and acetone on the shaved abdomen of the mouse.
Simultaneously with sensitization, a solution or suspension of the compound of the present invention in a 0.2% solution of carboxymethyl cellulose in a physiological saline was orally administered to the mouse at a dose of 50 mg per Kg of the body weight. To the control group, a 0.2% carboxymethyl cellulose solution in a physiological saline was similarly administered.
The delayed hypersensitivity was challenged 7 days after sensitization by gripping the ear of the mouse by a forceps wrapped with a felt impregnated with a 1% solution of picryl chloride in olive oil and coating the ear with the solution. The thickness of the ear was measured before challenging and 24 hours after challenging and the ratio of increase of the thickness (average value of both the ears in eight mice±standard deviation) was obtained as shown in Table 1.
For comparison, the test was similarly carried out by using Levamisole hydrochloride, and the obtained results are shown in Table 1. F.t tests were carried out. The group in which the test result was significant at a level of P<0.05 was marked by *, and the group in which the test result was significant at a level of P<0.01 was marked by **.

Test [2] has as its system adjuvant arthritis. The test can be described thus: Test 2: Adjuvant Arthritis Test. The class given is in vivo, SD male rats. The settings on record: 5 mg/kg subcutaneous, 9 times, left hind leg, * P<0.05, ** P<0.01; for Swelling Ratio (average value ± standard variation), 15 days: control 84.4 ± 9.0; for Swelling Ratio (average value ± standard variation), 18 days: control 103.2 ± 9.7; for Swelling Ratio (average value ± standard variation), 21 days: control 107.5 ± 13.3.

The test system of test [3] is EL-4 leukemic cells. The test can be described thus: Test 3: In-Vitro Test of Inhibition of Growth of Cancer Cell by Macrophage. The format is cell-based. The settings on record: for Take-in Ratio of 3H-thymidine (average value): 8 mg/kg intraperitoneal to mice, macrophages collected after 4 days, mixed with EL-4 cells, control 80.2; for Inhibition of take-in of 3H-thymidine by EL-4 cells / activation of macrophage, in words: 8 mg/kg intraperitoneal. The method, then: The results of the test of the action of the effective ingredient of the present invention on the macrophage will now be described with reference to the following Test 3. More specifically, the separated macrophage and EL-4 leukemic cell were mixed and cultured, and ^3 H-thymidine was added to a culture medium and the quantity of ^3 H-thymidine incorporated into the EL-4 cell was determined to examine the activity of the macrophage. When the macrophage is activated by administration of the effective ingredient of the present invention, inhibition of the growth of EL-4 cell, that is, phagocytosis of the cancer cell by the macrophage, is observed. Accordingly, if the take-in amount of ^3 H-thymidine is measured and this amount is reduced, it is confirmed that the macrophage has been activated. […] The dose was 8 mg per Kg of the body weight. To the control group, a physiological saline solution was similarly administered. After passage of 4 days, exuded abdominal cells were collected and deposited on a plastic Petri dish to collect macrophages. Then, 1×10^6 of so obtained macrophages and 1×10^5 of EL-4 leukemic cells of C57 BL/6J mouse were mixed and cultured in an RPMI 1640 culture medium to which 10% of bovine embryo serum was added (at 37° C. in the presence of 5% of CO2) for 24 hours. Then, 0.1μ Ci of ^3 H-thymidine was added and culturing was further conducted for 16 hours. Cells were collected on a filter paper from the culture medium and the amount of ^3 H-thymidine taken in was determined by a liquid scintillation counter. […] For comparison, the test was similarly carried out by using Levamisol hydrochloride.

Test [4] deals with Sarcoma 180. The test can be described thus: Test 5: Test of Antitumor Effect to Sarcoma 180 by Subcutaneous Administration. The class given is in vivo, ICR female mice. As to conditions: 20 mg/kg subcutaneous. The method, then:
To the control group, a physiological saline solution was similarly administered. […] The diameter D (mm) of the tumor was measured, and the average value and the number N of the living mice were determined to obtain results shown in Table 4.

Test [5] has as its system Sarcoma 180. The test can be described thus: Test 4: Test of Antitumor Effect to Sarcoma 180 by Oral Administration. The format is in vivo, ICR female mice. The method, then: To the control group, a physiological saline solution was similarly administered. The dose of the compound was 100 mg per Kg of the body weight. The diameter D (mm) of the tumor was measured, and the average value and the number N of the living mice were determined to obtain results shown in Table 4.

Setting [6] is: 50 mg/kg oral, simultaneously with sensitization, 24 h after challenge, control 29.6 ± 1.9, * P<0.05, ** P<0.01.

Structures can show the parent of a compound that is named as a salt.

For the molecule `CCN(CC)C(=O)N1CCN(c2ccc(OC)cc2)CC1` [drawing 13], the “Ratio of Increase of Ear Thickness (average value ± standard variation)” value (from here on “Ratio of Increase of Ear Thickness”) in test [1] (setting [6]) is reported as 40.1 ± 4.2%.

For the molecule `CCN(CC)C(=O)N1CCN(c2ccc(OC)cc2)CC1` [drawing 19], in test [2], the “Swelling Ratio (average value ± standard variation), 15 days” value (“Swelling Ratio … 15 days” for short) is given as 60.1 ± 11.3%; the “Swelling Ratio (average value ± standard variation), 18 days” value (shortened to “Swelling Ratio … 18 days”) is 57.1 ± 8.8%; the “Swelling Ratio (average value ± standard variation), 21 days” value (“Swelling Ratio … 21 days” below) amounted to 64.4 ± 10.5%.

With `CCN(CC)C(=O)N1CCN(c2ccccc2)CC1` [drawing 23], the “Take-in Ratio of 3H-thymidine (average value)” value (from here on “Take-in Ratio of 3H-thymidine”) in test [3] was determined as 24.4%.

Consider `CCOC(=O)c1ccc(N2CCN(C(=O)N(CC)CC)CC2)cc1` [drawing 26], for which, in test [3], the “Take-in Ratio of 3H-thymidine” value is given as 30.3%.

As to `CCN(CC)C(=O)N1CCN(c2ccc(C(C)=O)cc2)CC1` [drawing 16], the “Ratio of Increase of Ear Thickness” value in test [1] (setting [6]) is reported as 38.8 ± 3.5%.

As to `CCN(CC)C(=O)N1CCN(c2ccc(C(=O)O)cc2)CC1` [drawing 27], in test [3], the “Take-in Ratio of 3H-thymidine” value turned out to be 29.8%.

As to `CCN(CC)C(=O)N1CCN(c2ccc(Cl)cc2)CC1` [drawing 18], in test [2], the “Swelling Ratio … 15 days” value is given as 57.9 ± 11.1%; the “Swelling Ratio … 18 days” value came out at 55.7 ± 9.7%; the “Swelling Ratio … 21 days” value is on record as 62.8 ± 10.9%.

Regarding `CCN(CC)C(=O)N1CCN(c2ccc(C(=O)O)cc2)CC1` [drawing 15], the “Ratio of Increase of Ear Thickness” value in test [1] (setting [6]) was 37.7 ± 3.0%.

Take `CCN(CC)C(=O)N1CCN(c2ccc(Cl)cc2)CC1` [drawing 24]: the “Take-in Ratio of 3H-thymidine” value in test [3] was determined as 20.5%.

With `CCN(CC)C(=O)N1CCN(c2ccccc2)CC1` [drawing 11], the “Ratio of Increase of Ear Thickness” value in test [1] (setting [6]) is recorded as 44.0 ± 5.0%.

In the case of `CCOC(=O)c1ccc(N2CCN(C(=O)N(CC)CC)CC2)cc1` [drawing 14], the “Ratio of Increase of Ear Thickness” value in test [1] (setting [6]) is 39.1 ± 4.0%.

Take `CCN(CC)C(=O)N1CCN(c2ccc(Cl)cc2)CC1` [drawing 12]: the “Ratio of Increase of Ear Thickness” value in test [1] (setting [6]) worked out at 42.3 ± 3.7%.

On to `CCN(CC)C(=O)N1CCN(c2ccc(OC)cc2)CC1` [drawing 25], for which the “Take-in Ratio of 3H-thymidine” value in test [3] is recorded as 27.7%.

As to `CCOC(=O)c1ccc(N2CCN(C(=O)N(CC)CC)CC2)cc1` [drawing 20], in test [2], the “Swelling Ratio … 15 days” value worked out at 63.7 ± 12.0%; the “Swelling Ratio … 18 days” value is recorded as 60.4 ± 9.2%; the “Swelling Ratio … 21 days” value came out at 66.9 ± 11.1%.

For the molecule `CCN(CC)C(=O)N1CCN(c2ccc(C(=O)O)cc2)CC1` [drawing 21], in test [2], the “Swelling Ratio … 15 days” value was 65.0 ± 10.2%; the “Swelling Ratio … 18 days” value turned out to be 64.6 ± 7.9%; the “Swelling Ratio … 21 days” value was found to be 70.8 ± 10.7%.

For `CCN(CC)C(=O)N1CCN(c2ccc(C(C)=O)cc2)CC1` [drawing 28], the “Take-in Ratio of 3H-thymidine” value in test [3] was 27.4%.

For the molecule `c1ccc([C@H]2CN3CCSC3=N2)cc1` [Levamisole hydrochloride, reference compound], the “Ratio of Increase of Ear Thickness” value in test [1] (mouse, in vivo) worked out at 35.6 ± 2.4%. In addition, the “Carcinostatic activity on Sarcoma 180, in words” value in test [4] is listed as “no substantial carcinostatic activity”. For the same molecule, the “D: average diameter of tumor, 2 weeks” value came out at 7.7 mm in test [4] (2 weeks, control 10.8) and 10.2 mm in test [5] (100 mg/kg oral once a day, 10 days, 2 weeks, control 10.6). Also, the “D: average diameter of tumor, 4 weeks” value in test [4] (4 weeks, control 16.6) is 14.8 mm; in test [5] (100 mg/kg oral once a day, 10 days, 4 weeks, control 15.2), 16.2 mm. The “D: average diameter of tumor, 6 weeks” value in test [4] (6 weeks, control 20.3) is 14.4 mm; in test [5] (100 mg/kg oral once a day, 10 days, 6 weeks, control 22.4), 20.7 mm. The “D: average diameter of tumor, 8 weeks” value is on record as 30.2 mm in test [4] (8 weeks, control 31.3) and 29.6 mm in test [5] (100 mg/kg oral once a day, 10 days, 8 weeks, control 31.5). Also, the “D: average diameter of tumor, 10 weeks” value in test [4] (10 weeks, control 40.5) amounted to 31.6 mm; in test [5] (100 mg/kg oral once a day, 10 days, 10 weeks, control 37.6), 28.1 mm. Moreover, the “N: number of living mice, 0 weeks” value in test [4] (of 6 mice, 0 weeks, control 6) came out at 6; in test [5] (100 mg/kg oral, of 6 mice, 0 weeks, control 6) it was 6. Besides, the “N: number of living mice, 2 weeks” value is 6 in test [4] (of 6 mice, 2 weeks, control 6) and 6 in test [5] (100 mg/kg oral, of 6 mice, 2 weeks, control 6). Further, the “N: number of living mice, 4 weeks” value in test [4] (of 6 mice, 4 weeks, control 6) is 6; in test [5] (100 mg/kg oral, of 6 mice, 4 weeks, control 6), 6. Besides, the “N: number of living mice, 6 weeks” value in test [4] (of 6 mice, 6 weeks, control 6) is given as 6; in test [5] (100 mg/kg oral, of 6 mice, 6 weeks, control 6), 6. The “N: number of living mice, 8 weeks” value in test [4] (of 6 mice, 8 weeks, control 4) is listed as 3; in test [5] (100 mg/kg oral, of 6 mice, 8 weeks, control 5), 6. Besides, the “N: number of living mice, 10 weeks” value came out at 2 in test [4] (of 6 mice, 10 weeks, control 1) and 3 in test [5] (100 mg/kg oral, of 6 mice, 10 weeks, control 1). Moreover, the “Carcinostatic action on Sarcoma 180, in words” value in test [5] (100 mg/kg oral, repeated) is given as “no substantial carcinostatic action was observed”. Besides, the “Inhibition of take-in of 3H-thymidine by EL-4 cells / activation of macrophage, in words” value in test [3] was “does not exhibit such action”; in test [3] (listed as Levamisole), “hardly exhibits such action”. Besides, the “Take-in Ratio of 3H-thymidine” value in test [3] came out at 49.0%. Further, in test [2], the “Swelling Ratio … 15 days” value is listed as 65.2 ± 5.9%. Moreover, in test [2], the “Swelling Ratio … 18 days” value is on record as 69.3 ± 7.1%. In addition, the “Swelling Ratio … 21 days” value in test [2] is listed as 80.7 ± 9.6%.

The record behind these values is patent US4446133A, “1-Phenyl-4-carbamoyl piperazine compounds, process for preparation thereof and utilizations thereof” (Misuitoatsu Chemicals, Inc., priority 1980, dated 1984).
